Laboratory results reported in paper PMC9025941, “Influence of the Type of Amino Acid on the Permeability and Properties of Ibuprofenates of Isopropyl Amino Acid Esters” (International Journal of Molecular Sciences, 2022).
Read-outs that look alike come from different tables or passages of the source. Marks after values point to notes of the source that are not given here.

Assays:
[1] = Thermal stability (TG/DTG): decomposition onset and maximum mass-loss rate temperature
Description: In Figure 5, the thermal stability of ibuprofen and amino acid isopropyl ester ibuprofenates was determined and compared. All TG, DTG, and c-DTA curves are in the Supplementary Materials (Figures S87–S100). The decomposition onset temperature (Tonset) and the temperature of the maximum rate of mass loss (Tmax) were determined.

[2] = pH 7.4
Description: (§1) The permeation experiments were carried out by using Franz diffusion cells (Phoenix DB-6, ABL&E-JASCO, Wien, Austria) with diffusion areas of 1 cm^2. […] The acceptor chamber content was stirred with a magnetic stirring bar at the same speed for all cells. […] The skin was then divided into 2 cm × 2 cm pieces. The skin samples were wrapped in aluminium foil and stored in a freezer at −20 °C until use, not longer than three months. […] The skin was mounted on the donor chamber. Undamaged skin pieces with an even thickness were chosen for experiments. The integrity of the skin was examined by checking its impedance, which was measured using an LCRmeter4080 (Conradelectronic, Germany), which was operated in parallel mode at an alternating frequency of 120 Hz (error at kΩ values < 0.5%). […] Only skin samples of impedance >3 kΩ were applied. […] After this time, the acceptor fluid (0.4 cm^3) aliquots were withdrawn and refilled with fresh buffer at the same pH.

[3] = 25 °C; cited from earlier work
[4] = In vitro skin permeation, Franz diffusion cells
Description: as §1

[5] = cited from earlier work; for Solubility in Phosphate Buffer pH = 7.4: PBS pH 7.4, 32 °C; for Solubility in Water: 25 °C
[6] = shake flask; cited from earlier work

| SMILES | Tonset, the onset temperature of the thermal degradation [1] [°C] | JSS, steady-state flux [2] [µg IBU cm^−2 h^−1] | Solubility in DMSO [3] | Solubility in chloroform [3] | Solubility in dichloromethane [3] | Solubility in diethyl ether [3] | Solubility in ethanol [3] | Solubility in ethyl acetate [3] | Solubility in n-hexane [3] | Solubility in toluene [3] | Q%24 h, the percentage of the applied dose permeated after 24 h ([4]; 24 h, n = 3) [%] | Cumulative Permeation Mass ([4]; 24 h, saturated solution in PBS pH 7.4, mass of compound, n = 3) | Cumulative Permeation Mass ([4]; 24 h, saturated solution in PBS pH 7.4, mass of ibuprofen, n = 3) | EF, enhancement factor ([4]; relative to IBU) | JSS, steady-state flux ([4]; saturated solution in PBS pH 7.4, n = 3) [µg IBU cm^−2 h^−1] | Solubility in Phosphate Buffer pH = 7.4 ([5]; g of active compound (IBU)) | Solubility in Phosphate Buffer pH = 7.4 ([5]; g of compound) | Solubility in Water ([5]; g of active compound (IBU)) | Solubility in Water ([5]; g of compound) | Log P (n-octanol-water partition coefficient) [6] |
| --- | --- | --- | --- | --- | --- | --- | --- | --- | --- | --- | --- | --- | --- | --- | --- | --- | --- | --- | --- | --- |
| CC(C)Cc1ccc(C(C)C(=O)O)cc1.CSCC[C@H](N)C(=O)OC(C)C [[L-MetOiPr][IBU], L-methionine isopropyl ester ibuprofenate] | 146.2 | 25.312 ± 0.661 |  |  |  |  |  |  |  |  |  |  |  |  |  |  |  |  |  |  |
| CC(C)Cc1ccc(C(C)C(=O)O)cc1.CC(C)OC(=O)[C@@H](N)C(C)C [[L-ValOiPr][IBU], L-valine isopropyl ester ibuprofenate] |  |  | + [31] (soluble >100 mg cm^−3) | + [31] (soluble >100 mg cm^−3) | + [31] (soluble >100 mg cm^−3) | +/− [31] (partially soluble 33–100 mg cm^−3) | + [31] (soluble >100 mg cm^−3) | +/− [31] (partially soluble 33–100 mg cm^−3) | − [31] (insoluble <33 mg cm^−3) | + [31] (soluble >100 mg cm^−3) | 13.698 ± 1.123 | 684.642 ± 56.109 ^b µg·cm^−2 | 386.391 ± 31.666 ^b µg IBU·cm^−2 | 1.85 | 43.749 ± 2.445 | 2.821 ± 0.018 [31] g IBU∙dm^−3 | 4.998 ± 0.018 [31] g∙dm^−3 | 1.957 ± 0.007 [31] g IBU∙dm^−3 | 3.468 ± 0.007 [31] g∙dm^−3 | 1.154 ± 0.004 [31] |
